We go through 7 compounds from patent publication US10702537B2, “Devices and methods of treating methamphetamine addiction and medical and behavioral consequences of methamphetamine use and of HIV infection” (Board of Supervisors of Louisiana State University and …, priority 2015, dated 2020).

Data set [1] has as its system rats. The following applies: cited from earlier work.
The test system of a further data set is male rats. The data set is described as follows: methamphetamine self-administration in male rats. The data set is classed as in vivo, rat. The note with it: for antagonism of oxazepam's effect on methamphetamine self-administration: standard dose methamphetamine; for low dose methamphetamine self-administration: alprazolam 4 mg/kg IP, very low doses of methamphetamine, FIG. 3, 5A.

In data set [2] the test system is female rats. The data set is described as follows: methamphetamine self-administration in female rats. The data set is classed as in vivo, rat. The text has this: Turning to FIGS. 6 and 7, the inventors tested the TSPO compound Ro5-4864 in an animal model of methamphetamine self-administration in male and female rats. […] The inventors compared these effects to the effects of the benzodiazepine alprazolam. […] The inventors also show preliminary data with Ro7-9277 with female rats.

For another data set, the system named is GABAA receptor. Briefly: ex vivo homogenate binding, GABAA receptor. The following applies: structure-activity relationships, confirmed by ex vivo homogenate binding in rat brain tissue.
Data set [3] addresses TSPO (Rattus norvegicus, UniProt P16257). The data set is described as follows: ex vivo homogenate binding, TSPO. The note with it: structure-activity relationships, confirmed by ex vivo homogenate binding in rat brain tissue.
For another data set, the system named is humans. The following applies: Lile et al., cited from earlier work.
For data set [4], the system named is female rats. Briefly: cocaine drug discrimination. The data set is classed as in vivo, rat. The note with it: pretreatment, FIG. 2B.
Another data set has as its system female Wistar rats. The data set is described as follows: methamphetamine drug discrimination. The note with it: female Wistar rats trained to discriminate 1 mg/kg methamphetamine (IP) from saline; pretreatment; alprazolam 4 mg/kg IP at low doses 0.125 and 0.25 mg/kg methamphetamine; FIG. 2A. Format: in vivo, rat. The protocol:
(§1) Adult female Wistar rats were trained to discriminate 1 mg/kg methamphetamine (IP) from saline using food pellet reinforcement according to previously published procedures (Mantsch and Goeders, 1999, 1998). Pretreatment with alprazolam (4 mg/kg, IP) enhanced the methamphetamine discriminative stimulus at doses of 0.125 and 0.25 mg/kg methamphetamine. […] These observations have been confirmed using a conditioned place preference model as well, evidencing that benzodiazepines differentially modulate the rewarding and reinforcing properties of methamphetamine. […] Thus, this is an extraordinarily consistent pattern across three very different models of drug-related behaviors.

Data set [5] in a line: cocaine-related behaviors. The following applies: in vivo. The protocol: Benzodiazepines affect cocaine and methamphetamine-related behaviors differently—The inventors' laboratory has long been interested in the role for benzodiazepines in drug addiction.
as §1

The test system of data set [6] is rats. The data set is described as follows: methamphetamine drug-induced reinstatement (D-IR) study. The data set is classed as in vivo, rat. The note with it: FIG. 4.
Data set [7] concerns drug-dependent individuals. The note with it: cited from earlier work.
Data set [8] deals with TSPO. The note with it: cited from earlier work.
For data set [9] the following is noted: humans, cited from earlier work.
Another data set relates to TSPO mRNA. The following applies: rats; 1.0 mg/kg IP twice per day for 2 weeks, withdrawn for 7 days; cited from earlier work.
For data set [10] the following is noted: rats, intraperitoneal injection; cited from earlier work.
Setting [11] is: male rats trained at 0.06 mg/kg/infusion, pretreatment.

Entries after “also recorded” stand apart in the source; their conditions may differ. Like-named read-outs stand apart in the source and are kept apart here.

Chain of TSPO (Rattus norvegicus, UniProt P16257) (P16257 whole entry): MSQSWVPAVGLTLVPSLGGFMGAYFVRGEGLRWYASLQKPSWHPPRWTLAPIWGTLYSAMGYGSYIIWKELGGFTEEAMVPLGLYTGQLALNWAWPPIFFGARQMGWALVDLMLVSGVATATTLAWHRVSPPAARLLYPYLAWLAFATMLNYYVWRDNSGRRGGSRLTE

For `CC(=O)[C@H]1CC[C@H]2[C@@H]3CC[C@H]4C[C@H](O)CC[C@]4(C)[C@H]3CC[C@]12C` [Allopregnanolone], in the data set with rats [1] (both genders), the cocaine-related responding result is reported as “decrease”. In the data set on rats [1] (female rats), the methamphetamine-related responding result is recorded as “decrease”.

With `CCC(C)N(C)C(=O)c1cc2ccccc2c(-c2ccccc2Cl)n1` (stereo not shown) [PK11195], the “antagonism of oxazepam's effect on methamphetamine self-administration” value in the data set with male rats (male rats, FIG. 5B) was “partially blocked”; with male rats (male rats, FIG. 5B, listed as PKII195), “blocked”.

Regarding `CN1C(=O)CN=C(c2ccc(Cl)cc2)c2cc(Cl)ccc21` [Ro5-4864, 4′,7-Dichloro-1,3-dihydro-1-methyl-5-phenyl-2H-1,4-benzodiazepin-2-one], the “sensitivity of female rats compared to male rats to the effect on methamphetamine self-administration” value in the data set on female rats [2] (FIG. 7 versus FIG. 6) is “significantly more sensitive”. Besides, the methamphetamine self-administration entry is reported as “dose-related decrease” in the data set with female rats [2] (female rats, FIG. 7) and “dose-related decrease” in the data set on male rats (male rats, FIG. 6).

Consider `Cc1nnc2n1-c1ccc(Cl)cc1C(c1ccccc1)=NC2` [alprazolam, 8-chloro-1-methyl-5-phenyl-4H-(1,2,4)triazolo-1,4-benzodiazepine], for which the “binding to the GABAA receptor” value in the data set on GABAA receptor is “binds selectively”. Besides, the “binding to the TSPO” value at TSPO [3] is on record as “low affinity”. In addition, the “subjective effects of the methamphetamine high” value in the data set on humans (benzodiazepine given acutely at the same time as the stimulant) is given as “reduced”. Also, in the data set on female rats [4], the “cocaine discriminative stimulus effects” value is on record as “did not affect; also recorded: no effect”. Besides, the “methamphetamine discriminative stimulus effects” value in the data set with female Wistar rats is given as “enhanced”. Further, the “low dose methamphetamine self-administration” value in the data set on male rats (setting [11]) is “enhanced; also recorded: significant increases”. Further, the cocaine-related behaviors entry in data set [5] is “decrease; also recorded: reduce”. In addition, in the data set on rats [6] (low-dose priming injection of methamphetamine), the “low dose methamphetamine-induced reinstatement” value was “enhanced; also recorded: potentiated”. Besides, the “desirability among benzodiazepines (abuse liability)” value in data set [7] was “one of the most desired”.

With `CCOC(=O)c1ncn2c1CN(C)C(=O)c1cc(F)ccc1-2` [flumazenil], the “antagonism of alprazolam's effect on low-dose methamphetamine self-administration” value in the data set on male rats (antagonist administered 30 minutes prior to alprazolam, FIG. 5A) is given as “inhibited; also recorded: blocked”. Moreover, the “antagonism of oxazepam's effect on methamphetamine self-administration” value in the data set with male rats (male rats, FIG. 5B) is “partially blocked”.

Consider `CN[C@@H](C)Cc1ccccc1` [methamphetamine], for which, in the data set with TSPO [8] (self-administration of methamphetamine 0.3 mg/kg/inf), the TSPO binding entry is on record as “enhances”. The “TSPO binding in the striatum, cerebellum and hippocampus” value in the data set with TSPO [8] (subchronic repeated doses 4×10 mg/kg SC every two hours, within 72 hours) is listed as “increase”. Also, the “Tmax of methamphetamine in blood” value in [9] (intranasal administration) is 2.82 ± 0.13 h; in data set [9] (intravenously administered), 0.1 ± 0.183 h; in [9] (oral, range 180-300 min) it was 3.6 h; in data set [9] (smoked) it was 2.5 ± 0.5 h. In the data set on TSPO mRNA, the “TSPO mRNA” value is “enhances”. The Tmax of methamphetamine in data set [10] is 7.5 ± 2.8 min.

`O=C1Nc2ccc(Cl)cc2C(c2ccccc2)=NC1O` (stereo not shown) [oxazepam, 7-chloro-1,3-dihydro-3-hydroxy-5-phenyl-2H-1,4-benzodiazepin-2-one]: the “binding to the GABAA receptor” value in the data set with GABAA receptor is given as “binds”. Moreover, the “binding to the TSPO” value at TSPO [3] is on record as “binds”. For the same compound, in the data set on humans (benzodiazepine given acutely at the same time as amphetamine), the “subjective effects of d-amphetamine” value is recorded as “no significant effect”. Further, the “cocaine discriminative stimulus effects” value in the data set with female rats [4] is reported as “dose-dependently decreased”. In addition, in the data set on female Wistar rats, the “methamphetamine discriminative stimulus effects” value is given as “dose-dependently decreased”. Moreover, in the data set with male rats (setting [11]), the “low dose methamphetamine self-administration” value was “no effect”. For the same compound, in the data set on male rats (male rats trained at 0.06 mg/kg/infusion, pretreatment, FIG. 3), the “methamphetamine self-administration across all doses tested” value is on record as “decreased; also recorded: significant decreases”. For the same compound, in the data set on male rats (male rats, FIG. 5B), the “standard dose methamphetamine self-administration” value is recorded as “decreased”. Further, the cocaine-related behaviors result in [5] is listed as “decrease; also recorded: reduce”. Further, the methamphetamine-induced reinstatement entry in the data set with rats [6] (all doses tested) was “decreased”. In addition, the “desirability among benzodiazepines (abuse liability)” value in data set [7] is “one of the least desirable”.
